Test results as given in publication PMC12579162, “Synthesized Depside Molecules Suppress the Progression of Colorectal Cancer by Binding VDAC1/PHB/MMP9 Being at the Crossroads of Stemness, Motility, Apoptosis, and Metabolism” (MedComm, 2025).
Like-named read-outs stand apart in the source and are kept apart here.

Legend:
CaCo2 cells = assay: MTT cell viability, CaCo2; format: cell-based; conditions: Homo sapiens, Caco-2; 48 h, MTT assay
Procedure: (§1) Cells (3 × 10^3 cells/well) were seeded on a 96‐well plate, grown overnight, and then treated with compounds at indicated concentrations for 48 h. After incubation with MTT for 4 h at 37°C, cells were lysed with 150 µL of DMSO (Sigma–Aldrich, St. Louis, USA). Absorbance was measured at 570 nm on a microplate reader with the Gen5 software (v.2.03.1; BioTek, Winooski, VT, USA).

HCT116 cells = assay: MTT cell viability, HCT116; format: cell-based; conditions: Homo sapiens, HCT-116; 48 h, MTT assay
Procedure: as §1

HT29 cells = assay: MTT cell viability, HT29; format: cell-based; conditions: Homo sapiens, HT-29; 48 h, MTT assay
Procedure: as §1

CT26 cells = assay: MTT cell viability, CT26; format: cell-based; conditions: Mus musculus, 48 h, MTT assay
Procedure: as §1

SW620 cells = assay: MTT cell viability, SW620; format: cell-based; conditions: Homo sapiens, SW-620; 48 h, MTT assay
Procedure: as §1

HaCaT cells = assay: MTT cell viability, HaCaT; format: cell-based; conditions: Homo sapiens, 48 h, MTT assay
Procedure: as §1

HEK293T cells = assay: MTT cell viability, HEK293T; format: cell-based; conditions: Homo sapiens, HEK-293T; 48 h, MTT assay
Procedure: as §1

[1] = Tissue distribution in CT26 tumor-bearing mice (LC–MS/MS); format: in vivo; conditions: Balb/c mice, 10 mg/kg; for distribution in tumor and intestines: 24 h, compared with TU and DA; for concentration at 24 h: mouse
Procedure: Concentrations of TU, DA, SB4, and SB5 in tissues (liver, intestine, and tumor) and plasma were measured using LC–MS/MS. Samples were prepared by 40 µL of plasma or the supernatant separated from the tissue pellet and added 120 µL of acetonitrile (ACN) containing internal standard (IS). The samples were vortexed, sonicated for 30 min, and then left on ice for 15 min. Subsequently, the samples were centrifuged at 3000×g for 20 min, and the supernatant was analyzed. Calibration curves were prepared by matrix matched with tissue supernatants‐treated DMSO. The standard concentrations were set at 0, 62.5, 250, and 1000 nM for each compound. The LC–MS/MS system comprised a 40D‐XS UHPLC system (Shimadzu), and API 4000 mass spectrometer equipped with a Turbo V IonSpray source (Applied Biosystems). The sample separation was performed on a Waters Atlantis dC18 column (2.1 × 100 mm, 3 µm) using a mobile phase consisting of 0.1% formic acid in water (mobile phase A) and 0.1% formic acid in ACN (mobile phase B). A linear gradient of the two solvents was used (0 min, 0% B; 4 min, 50% B; 7 min, 95% B; 8 min, 0% B), and the equilibration time was 2 min. The flow rate was set at 0.4 mL/min, the column temperature was maintained at 30°C, and the injection volume was 10 µL.
MS/MS analysis was conducted in multiple reaction monitoring (MRM). In positive ion mode transitions were set for DA (m/z 375 → 193), SB4 (m/z 447 → 193), SB5 (m/z 461 → 193), and the IS carbamazepine (100 nM, m/z 237 → 197). In negative ion mode, MRM transitions were monitored for TU (m/z 339 → 217) and the IS 4‐methylumbelliferone (300 nM, m/z 175 → 133). The Turbo V Ion Spray interface was operated in 5500 V (pos) or −4500 V (neg), with a source temperature of 600°C. Nebulizing gas flow, auxiliary gas flow, and curtain gas flow were set at 50, 40, and 30 L/min, respectively, while the collision gas pressure was maintained at 3.4 × 10^−⁵ Torr. Data were analyzed by analyst 1.6.2 (AB Sciex, Framingham, USA).

CSC221 cells = assay: Spheroid formation assay, CSC221; format: cell-based, human; conditions: for spheroid formation, cotreatment with cetuximab: CSC221, 5 µM with cetuximab 10, 25, and 50 µg/mL, 2 weeks; for spheroid formation: CSC221, up to 10 µM, 14 days, compared with TU and DA
Procedure: (§2) Monolayer cells were separated into single‐cell suspensions at around 70% confluence using a solution of trypsin. After that, the cells were added to N2‐supplemented DMEM/F12 that contained human basal fibroblast growth factor and human recombinant epidermal growth factor. Cells seeded at a density of 5 × 10^3 cells/well in ultra‐low attachment 24‐well plates (Corning Inc., Corning, NY, USA). After 10–14 days of culture, spheres were quantitated by inverted phase contrast microscopy. The relative sphere formation ability was calculated through the IMT iSolution software (IMT iSolution Inc., Northampton, NJ, USA) measuring the pixel intensity of the sphere area randomly in each plate.

MCF10A cells = assay: Spheroid formation assay, MCF10A; format: cell-based, human; conditions: noncancerous MCF10A, 10–14 days
Procedure: as §2

[2] = tested on: MMP9 promoter in HEK293T cells; assay: MMP9 promoter reporter assay; format: cell-based, human; conditions: 2.5 and 5 µM, 24 h
Procedure: HEK293T was plated in a 24-well plate, left to attach, and then transfected with 100 ng of AP-1, STAT, Gli, CSL, TOPFLASH (with 100 ng β-catenin), NF-kB, Hes-1 and MMP9 reporter plasmids with 2 ng of Renilla-luc (pRL-TK) plasmid. MMP9 reporter assays were tested by stimulating Gli1-Flag, Gli2-Flag, ΔEN1-Myc, and MYC-flag plasmids. Transfections were performed using the X-treme GENE 9 DNA transfection reagent (Roche, Werk Penzberg, Germany). After 24 hours transfection, cells were treated with compounds or DMSO and incubated for 24 h at 37 °C under 5% CO2. The Dual-Luciferase reporter assay system (Promega, Madison, WI, USA) was used.

CRC cell lines = assay: Apoptosis / cell death analysis; format: cell-based, human
Procedure: Cells were cultured in a six‐well plate at the density of 2 × 10^5 cells/well until adherence. Cells were treated with DMSO or compound for 48 h. Apoptosis or cell cycle experiments were then performed. For apoptosis analysis, cells were harvested and washed with PBS, resuspended in 100 µL of 1× binding buffer followed by staining with 4 µL of Annexin V–FITC (BD, Biosciences, San Jose, CA, USA), and 8 µL of 50 µg/mL propidium iodide (PI; BD Biosciences, San Jose, CA, USA) for 30 min in the dark. For cell cycle analysis, cells were washed with FACS washing buffer, incubated with trypsin solution, followed by RNase A for 10 min at room temperature. Cells were centrifuged and pellets were collected and stained with 100 µL of 4 mg/mL PI (Sigma–Aldrich) for 2 h in the dark at 4°C. Cells were detected by flow cytometry on a CytoFLEX instrument (Beckman Coulter Life Sciences, Indianapolis, IN, USA).

[3] = liver, read-out: concentration in liver
[4] = plasma, read-out: quantity in plasma

SMILES	IC50 (CaCo2 cells) [µM]	IC50 (HCT116 cells) [µM]	IC50 (HT29 cells) [µM]	IC50 (CT26 cells) [µM]	IC50 (SW620 cells) [µM]	IC50 (HaCaT cells) [µM]	IC50 (HEK293T cells) [µM]	distribution in tumor and intestines [1]	concentration at 24 h [1, 3] [nM]	concentration at 24 h [1, 4] [nM]	spheroid formation, cotreatment with cetuximab (CSC221 cells)	spheroid formation (CSC221 cells)	spheroid formation (MCF10A cells)	MMP9 promoter activity [2]	concentration with cell death ability (CRC cell lines) [µM]
COCCOc1c(C)c(OC(=O)c2c(C)cc(OC)c(C)c2OC)cc(C)c1C(=O)OC [SB4, 4-(Methoxycarbonyl)-3-(2-methoxyethoxy)-2,5-dimethylphenyl 2,4-dimethoxy-3,6-dimethylbenzoate]	8.74	11.7	3.95	5.33	5.33	26.7	19	bioavailability is improved compared with TU and DA	1 to 2	< 2	significantly reduced the adverse effects of cetuximab	suppress spheroid formation more strongly than TU and DA	did not change the inhibition or induction of spheroid formation in a statistically significant way	downregulated	~10
COCCCOc1c(C)c(OC(=O)c2c(C)cc(OC)c(C)c2OC)cc(C)c1C(=O)OC [SB5, 4-(Methoxycarbonyl)-3-(3-methoxypropoxy)-2,5-dimethylphenyl 2,4-dimethoxy-3,6-dimethylbenzoate]	2.77	4.5	7.47	2.27	2.27	70.7	63.2	bioavailability is improved compared with TU and DA	1 to 2	< 2	significantly reduced the adverse effects of cetuximab	suppress spheroid formation more strongly than TU and DA	did not change the inhibition or induction of spheroid formation in a statistically significant way	downregulated	~10
